How the values were obtained:
[1] = Cytotoxicity against human HepG2.2.15 cells by MTT assay; format: cell-based, HepG2 2.2.15
Hepatitis B virus [2] = assay: Antiviral activity against HBV assessed as inhibition of viral surface antigen secretion in HepG2.2.15 cells by ELISA; format: functional, organism-based; conditions: HepG2 2.2.15
[3] = Selectivity index, ratio of CC50 for human HepG2.2.15 cells to IC50 for HBV surface antigen secretion; format: functional
Hepatitis B virus [4] = assay: Antiviral activity against HBV assessed as inhibition of viral e-antigen secretion in HepG2.2.15 cells by ELISA; format: functional, organism-based; conditions: HepG2 2.2.15
[5] = Selectivity index, ratio of CC50 for human HepG2.2.15 cells to IC50 for HBV e-antigen secretion; format: functional
[6] = test system: Human immunodeficiency virus 1; assay: Antiviral activity against HIV1 in human C8166 cells assessed as protection against viral-induced cytopathic effect by syncytium reduction assay; format: functional, organism-based; conditions: Human immunodeficiency virus 1, C8166
[7] = Cytotoxicity against human C8166 cells after 72 hrs by MTT assay; format: cell-based
[8] = Selectivity index, ratio of CC50 for human C8166 cells to EC50 for HIV1; format: toxicity, cell-based; conditions: read-out: Ratio CC50/EC50

Structure (SMILES)	IC50 (Hepatitis B virus [2]) [µM]	IC50 (Hepatitis B virus [4]) [µM]	EC50 [6] [µM]	CC50 [1] [µM]	Ratio CC50/IC50 [3]	Ratio CC50/IC50 [5]	CC50 at 72 h [7] [µM]	selectivity ratio [8]
COc1cc2c(cc1OC)[C@@H]1Cc3ccc(OC)c(OC)c3C(=O)N1CC2	140	> 7470	14.1	3000	22.4	<1	307	18.8
COc1ccc2c(c1OC)C(=O)N1CCc3cc4c(cc3[C@@H]1C2)OCO4	> 3400	> 3400	–	> 3400	–	–	–	–
COc1c(OC)c2c3c(nccc3c1OC)-c1cc(O)ccc1-2 [IMERUBRINE]	930	> 3880	10.9	> 3880	>4.17	–	493	45.7
CO[C@@H]1C(=O)C[C@]23CCN(C)[C@@]24C[C@@H](O[C@]14OC)c1cc2c(cc13)OCO2 [PERIGLAUCINE A]	1040	3410	204	2960	2.85	<1	> 536	4.03
CO[C@H]1C(=O)C[C@]23CCN(C)[C@@]24C[C@@H](O[C@]14OC)c1cc2c(cc13)OCO2 [PERIGLAUCINE B]	470	3090	389	640	1.36	<1	> 536	1.61

More lines, main results first:

IC50 (Hepatitis B virus [2]) [µM]	IC50 (Hepatitis B virus [4]) [µM]	EC50 [6] [µM]	Structure (SMILES)	CC50 [1] [µM]	Ratio CC50/IC50 [3]	Ratio CC50/IC50 [5]	CC50 at 72 h [7] [µM]	selectivity ratio [8]
1720	> 3690	162	CO[C@@H]1C(=O)C[C@]23CC(=O)N(C)[C@@]24C[C@@H](O[C@]14OC)c1cc2c(cc13)OCO2 [PERIGLAUCINE C]	2360	1.37	<1	> 516	3.29
670	3010	334	CO[C@@H]1C(=O)C[C@]23C[C@H](CC(C)=O)N(C)[C@@]24C[C@@H](O[C@]14OC)c1cc2c(cc13)OCO2 [PERIGLAUCINE D]	2060	3.07	<1	> 466	1.65
–	–	0.0108	Cc1cn([C@H]2C[C@H](N=[N+]=[N-])[C@@H](CO)O2)c(=O)[nH]c1=O [ZIDOVUDINE]	–	–	–	–	471
